Measurements reported in PubChem BioAssay AID624374 (Broad Institute, 2012).
Records with an inconclusive call do not appear. Active and inactive are the calls of the source. How the calls were made is not given here.

Tested on: not listed separately
Assay: HEK293 cell viability, dose response, counter-screen for EBV LMP1 inhibitor project, dry powder, set 2 (AID 624374)
Details: HEK293 viability counterscreen, plate reader; at 30 µM (top of the series)
With `C[C@H](NC(=O)C[C@@H]1C=C[C@H](NC(=O)Cc2ccccn2)[C@H](CO)O1)c1ccccc1` the activity change, negative = viability loss was 3.96% (inactive).
In the case of `Cc1noc(C)c1S(=O)(=O)Nc1ccc2c(c1)C(=O)N([C@@H](C)CO)C[C@H](C)[C@H](CN(C)Cc1ccc(C(F)(F)F)cc1)OCCCC[C@@H](C)O2`, the activity change, negative = viability loss is reported as 11.8% (inactive).
In the case of `CN(C)C(=O)c1cccc(-c2cccc(-c3nc(C(=O)NCc4ccccc4)cc4c3[C@@H](CCO)N([S@](=O)C(C)(C)C)C4)c2)c1`, the activity change, negative = viability loss is reported as -12.3% (inactive).

Same assay, conditions: HEK293 viability counterscreen, plate reader; at 35 µM (top of the series)
With `N#C[C@H]1[C@H](c2ccc(C#Cc3ccccc3F)cc2)[C@@H](CO)N1C(=O)c1cccnc1` the activity change, negative = viability loss was 4.46% (inactive).
With `C[C@H]1CN([C@@H](C)CO)C(=O)Cc2cc(NC(=O)Cc3ccccc3)ccc2O[C@@H]1CN(C)Cc1ccc(C(F)(F)F)cc1` the activity change, negative = viability loss was 12.4% (inactive).
In the case of `C[C@@H](NC(=O)C[C@H]1C=C[C@H](NC(=O)Cc2ccccn2)[C@H](CO)O1)c1ccccc1`, the activity change, negative = viability loss is reported as -7.68% (inactive).
For `O=C(C[C@@H]1CC[C@H]2[C@@H](COC[C@H](O)CN2Cc2ccc(Oc3ccccc3)cc2)O1)N1CCc2ccccc2C1`, the activity change, negative = viability loss was -2.75% (inactive).
With `CC(C)NC(=O)N1Cc2cc(C(=O)NC3Cc4ccccc4C3)nc(-c3cccc(-c4cccnc4)c3)c2[C@H]1CCO` the activity change, negative = viability loss was 25.1% (inactive).
In the case of `COc1ccccc1C#Cc1ccc([C@H]2[C@H](C#N)N(C(=O)C3CC3)[C@H]2CO)cc1`, the activity change, negative = viability loss is reported as 2.46% (inactive).
With `Cc1noc(C)c1S(=O)(=O)Nc1ccc2c(c1)C(=O)N([C@@H](C)CO)C[C@H](C)[C@@H](CN(C)Cc1ccc(C(F)(F)F)cc1)OCCCC[C@H](C)O2` the activity change, negative = viability loss was 4.59% (inactive).
For `COc1ccc(-c2cccc(-c3nc(C(=O)NCC(F)(F)F)cc4c3[C@H](CCO)N([S@@](=O)C(C)(C)C)C4)c2)cc1`, the activity change, negative = viability loss was -10.9% (inactive).
In the case of `C[C@@H](NC(=O)C[C@H]1C=C[C@@H](NC(=O)Cc2ccccn2)[C@H](CO)O1)c1ccccc1`, the activity change, negative = viability loss is reported as -2.87% (inactive).
In the case of `CC(C)NC(=O)N1[C@H](CO)[C@H](c2ccc(C#CC3CCCCC3)cc2)[C@@H]1C#N`, the activity change, negative = viability loss is reported as -6.23% (inactive).
In the case of `CN(C)c1ccc2c(c1)[C@@H]1C[C@@H](CC(=O)NCc3ccc(Oc4ccccc4)cc3)O[C@H](CO)[C@@H]1O2`, the activity change, negative = viability loss is reported as -4.49% (inactive).
For `COc1ccc(S(=O)(=O)N(C)C[C@H]2Oc3ncc(/C=C/c4ccccc4)cc3C(=O)N([C@H](C)CO)C[C@@H]2C)cc1`, the activity change, negative = viability loss was 13.6% (inactive).
In the case of `O=C(C[C@H]1C[C@@H]2c3cc(NS(=O)(=O)c4ccc(F)cc4)ccc3O[C@@H]2[C@H](CO)O1)NC1CCCCC1`, the activity change, negative = viability loss is reported as 2.73% (inactive).
With `COc1ccc(S(=O)(=O)N(C)C[C@@H]2Oc3ncc(/C=C/c4ccccc4)cc3C(=O)N([C@@H](C)CO)C[C@H]2C)cc1` the activity change, negative = viability loss was 5.95% (inactive).
For `C[C@H](NC(=O)C[C@H]1C=C[C@@H](NC(=O)Cc2ccccn2)[C@@H](CO)O1)c1ccccc1`, the activity change, negative = viability loss was -1.38% (inactive).
For `C[C@H]1CN([C@@H](C)CO)C(=O)c2c(c3ccccc3n2C)-c2ccccc2CO[C@@H]1CN(C)C(=O)Nc1ccc(F)cc1`, the activity change, negative = viability loss was 2.63% (inactive).
With `N#C[C@H]1N[C@H](CO)[C@H]1c1ccc(C#Cc2ccccc2F)cc1` the activity change, negative = viability loss was -10.8% (inactive).
For `Cc1noc(C)c1S(=O)(=O)Nc1ccc2c(c1)C(=O)N([C@@H](C)CO)C[C@@H](C)[C@@H](CN(C)Cc1ccc(C(F)(F)F)cc1)OCCCC[C@@H](C)O2`, the activity change, negative = viability loss was -11.2% (inactive).
In the case of `O=C(C[C@H]1C[C@H]2c3cc(NC(=O)c4ccc5c(c4)OCO5)ccc3O[C@H]2[C@H](CO)O1)NCc1ccc(Oc2ccccc2)cc1`, the activity change, negative = viability loss is reported as -11.7% (inactive).
In the case of `O=C(C[C@@H]1C[C@H]2c3cc(NC(=O)c4ccc5c(c4)OCO5)ccc3O[C@H]2[C@H](CO)O1)NC1CCCCC1`, the activity change, negative = viability loss is reported as 2.89% (inactive).
For `C[C@@H](NC(=O)C[C@@H]1C=C[C@H](NC(=O)Cc2ccccn2)[C@@H](CO)O1)c1ccccc1`, the activity change, negative = viability loss was -2.91% (inactive).
In the case of `COc1cccc(S(=O)(=O)N(C)C[C@@H]2Oc3cc(C4=CCCCC4)ccc3S(=O)(=O)N([C@@H](C)CO)C[C@@H]2C)c1`, the activity change, negative = viability loss is reported as -1.39% (inactive).
With `C[C@H]1CN([C@@H](C)CO)C(=O)c2cc(C#Cc3ccccc3F)cnc2O[C@@H]1CN(C)C(=O)C1CCCCC1` the activity change, negative = viability loss was 7.95% (inactive).
With `Cc1noc(C)c1S(=O)(=O)Nc1ccc2c(c1)C(=O)N([C@H](C)CO)C[C@@H](C)[C@@H](CN(C)Cc1ccc(C(F)(F)F)cc1)OCCCC[C@H](C)O2` the activity change, negative = viability loss was -1.22% (inactive).
In the case of `COc1ccccc1C#Cc1ccc2c(c1)O[C@H](CN(C)Cc1cccnc1)[C@H](C)CN([C@H](C)CO)S2(=O)=O`, the activity change, negative = viability loss is reported as 4.43% (inactive).
In the case of `CC(C)(C)[S@@](=O)N1Cc2cc(C(=O)NCc3ccccn3)nc(-c3cccc(-c4ccccc4F)c3)c2[C@H]1CCO`, the activity change, negative = viability loss is reported as 2.2% (inactive).
With `COc1ccccc1C#Cc1ccc2c(c1)O[C@H](CN(C)Cc1cccnc1)[C@H](C)CN([C@@H](C)CO)S2(=O)=O` the activity change, negative = viability loss was -0.213% (inactive).
With `COc1cccc(S(=O)(=O)N(C)C[C@H]2Oc3cc(C4=CCCCC4)ccc3S(=O)(=O)N([C@H](C)CO)C[C@H]2C)c1` the activity change, negative = viability loss was -4.57% (inactive).
For `O=C(Nc1ccc(C(F)(F)F)cc1)Nc1ccc2c(c1)[C@@H]1C[C@H](CC(=O)N3CCc4ccccc4C3)O[C@H](CO)[C@@H]1O2`, the activity change, negative = viability loss was -11.3% (inactive).
With `Cc1noc(C)c1S(=O)(=O)Nc1ccc2c(c1)C(=O)N([C@H](C)CO)C[C@@H](C)[C@H](CN(C)Cc1ccc(C(F)(F)F)cc1)OCCCC[C@@H](C)O2` the activity change, negative = viability loss was -3.71% (inactive).
With `COc1ccccc1C#Cc1cnc2c(c1)C(=O)N([C@@H](C)CO)C[C@H](C)[C@@H](CN(C)C(=O)c1ccc3c(c1)OCO3)O2` the activity change, negative = viability loss was 9.4% (inactive).
In the case of `O=C(C[C@@H]1C[C@@H]2c3cc(NS(=O)(=O)c4ccc(F)cc4)ccc3O[C@@H]2[C@H](CO)O1)NC1CCCCC1`, the activity change, negative = viability loss is reported as 6.32% (inactive).
With `COc1ccccc1C#Cc1cnc2c(c1)C(=O)N([C@H](C)CO)C[C@H](C)[C@@H](CN(C)C(=O)c1ccc3c(c1)OCO3)O2` the activity change, negative = viability loss was 7.12% (inactive).
In the case of `O=C(C[C@H]1C[C@@H]2c3cc(NC(=O)c4ccc5c(c4)OCO5)ccc3O[C@@H]2[C@@H](CO)O1)NCc1ccc(Oc2ccccc2)cc1`, the activity change, negative = viability loss is reported as -3.98% (inactive).
With `Cc1noc(C)c1S(=O)(=O)Nc1ccc2c(c1)C(=O)N([C@H](C)CO)C[C@@H](C)[C@@H](CN(C)Cc1ccc(C(F)(F)F)cc1)OCCCC[C@@H](C)O2` the activity change, negative = viability loss was -10.4% (inactive).
For `CC(C)NC(=O)N1Cc2cc(C(=O)NC3Cc4ccccc4C3)nc(-c3cccc(-c4cccnc4)c3)c2[C@@H]1CCO`, the activity change, negative = viability loss was 22.6% (inactive).
In the case of `C[C@@H]1CN([C@H](C)CO)S(=O)(=O)c2ccc(C#C[C@@H](C)O)cc2O[C@H]1CN(C)Cc1ccc(-c2ccccc2)cc1`, the activity change, negative = viability loss is reported as -18.7% (inactive).
With `C[C@H]1CN([C@@H](C)CO)C(=O)c2c(c3ccccc3n2C)-c2ccccc2CO[C@H]1CN(C)C(=O)Nc1ccc(F)cc1` the activity change, negative = viability loss was -8.86% (inactive).
For `COc1cccc(S(=O)(=O)N(C)C[C@@H]2Oc3cc(C4=CCCCC4)ccc3S(=O)(=O)N([C@H](C)CO)C[C@H]2C)c1`, the activity change, negative = viability loss was -0.785% (inactive).
For `C[C@@H]1CN([C@H](C)CO)C(=O)Cc2cc(NC(=O)Cc3ccccc3)ccc2O[C@@H]1CN(C)Cc1ccc(C(F)(F)F)cc1`, the activity change, negative = viability loss was 0.279% (inactive).
With `C/C=C/c1cccc(-c2nc(C(=O)Nc3nccs3)cc3c2[C@@H](CCO)N(C(=O)NC(C)C)C3)c1` the activity change, negative = viability loss was 4.5% (inactive).
For `COc1cccc(S(=O)(=O)N(C)C[C@H]2Oc3cc(C4=CCCCC4)ccc3S(=O)(=O)N([C@@H](C)CO)C[C@@H]2C)c1`, the activity change, negative = viability loss was 9.06% (inactive).
With `C[C@H](NC(=O)C[C@H]1C[C@@H]2c3cc(NC(=O)c4cccnc4)ccc3O[C@@H]2[C@@H](CO)O1)c1ccccc1` the activity change, negative = viability loss was -6.5% (inactive).
In the case of `Cc1noc(C)c1S(=O)(=O)Nc1ccc2c(c1)C(=O)N([C@H](C)CO)C[C@@H](C)[C@H](CN(C)Cc1ccc(C(F)(F)F)cc1)OCCCC[C@H](C)O2`, the activity change, negative = viability loss is reported as -6.47% (inactive).
For `C[C@@H]1CN([C@H](C)CO)C(=O)c2c(c3ccccc3n2C)-c2ccccc2CO[C@@H]1CN(C)C(=O)Nc1ccc(F)cc1`, the activity change, negative = viability loss was 6.88% (inactive).
For `C[C@@H]1CN([C@H](C)CO)C(=O)c2c(c3ccccc3n2C)-c2ccccc2CO[C@H]1CN(C)C(=O)Nc1ccc(F)cc1`, the activity change, negative = viability loss was -13% (inactive).
In the case of `C[C@@H](NC(=O)C[C@@H]1C=C[C@@H](NC(=O)Cc2ccccn2)[C@H](CO)O1)c1ccccc1`, the activity change, negative = viability loss is reported as 5.06% (inactive).
For `O=C(C[C@@H]1C[C@@H]2c3cc(NC(=O)c4cccnc4)ccc3O[C@@H]2[C@H](CO)O1)NCC(F)(F)F`, the activity change, negative = viability loss was -0.478% (inactive).
With `Cc1cc(C(=O)Nc2ccc3c(c2)C(=O)N(C)[C@H]2CC[C@H](CC(=O)NCc4ccc(-c5ccccc5)cc4)O[C@H]2CO3)no1` the activity change, negative = viability loss was -11.4% (inactive).
For `C[C@@H](NC(=O)C[C@H]1C=C[C@@H](NC(=O)Cc2ccccn2)[C@@H](CO)O1)c1ccccc1`, the activity change, negative = viability loss was 2.73% (inactive).
In the case of `Cc1noc(C)c1S(=O)(=O)Nc1ccc2c(c1)C(=O)N([C@@H](C)CO)C[C@@H](C)[C@H](CN(C)Cc1ccc(C(F)(F)F)cc1)OCCCC[C@@H](C)O2`, the activity change, negative = viability loss is reported as -0.939% (inactive).

Tested on: HEK293 viability counterscreen, plate reader
Assay: as above
Details: not given
In the case of `Cc1ccc(S(=O)(=O)N(C)C[C@H]2Oc3cc(C#Cc4ccncc4)ccc3S(=O)(=O)N([C@@H](C)CO)C[C@@H]2C)cc1`, the AC35 is reported as > 35 µM (inactive).
For `COc1ccccc1CNC(=O)C[C@@H]1C[C@H]2c3cc(NC(=O)c4ccc5c(c4)OCO5)ccc3O[C@H]2[C@H](CO)O1`, the AC35 was > 35 µM (inactive).
For `O=C(C[C@H]1C[C@@H]2c3cc(NS(=O)(=O)c4ccc(F)cc4)ccc3O[C@@H]2[C@@H](CO)O1)NCc1ccc(Oc2ccccc2)cc1`, the AC35 was 23.1 µM.
For `CC(C)(C)[S@@](=O)N1Cc2cc(C(=O)NCc3ccccc3F)nc(-c3cccc(-c4ccncc4)c3)c2[C@H]1CCO`, the AC35 was > 35 µM (inactive).
